# Assay results from patent publication US4853467A, “Nitrogen containing derivatives of epipodophyllotoxin glucosides” (Bristol-Myers Company, priority 1987, dated 1989).
# Structures can show the parent of a compound that is named as a salt.
# Legend:
# [1] = test system: P388 murine leukemia; assay: P388 Leukemia, antitumor activity against murine P388 leukemia; assay type: in vivo, murine (female CDF1 mice); details: i.p. on days 5 and 8; 10^6 P388 cells i.p.; maximum effect over doses; >=125 considered significant; etoposide values in parentheses are positive control in same experiment
# Protocol: Female CDF1 mice were implanted intraperitoneally with a tumor inoculum of 10^6 ascites cells of P388 murine leukemia and treated with various doses of a test compound; four mice were used for each dose level and ten were used as saline-treated control. The compounds were administered by intraperitoneal injection on days 5 and 8 (day 1 being the day of tumor implantation). Antitumor activity was expressed as % T/C which is the ratio of the median survival time (MST) of drug-treated group to the MST of saline-treated control group. A compound showing a % T/C value of 125 or greater is generally considered to have significant antitumor activity in the P388 test. The experiment lasted 31 days at the end of which time the number of survivors was noted. Table I presents the results of the above-described evaluation; only the maximum % T/C and the dose showing the maximum effect are reported.
# [2] = test system: B16-F10 murine melanoma; assay: In vitro cytotoxicity assay, B16-F10 murine melanoma; assay type: cell-based; details: two values per compound, four-fold serial dilution; for In vitro cytotoxicity IC50, B-16-F10: B16-F10 murine melanoma; for IC50: Mus musculus, B16-F10, B16-F10 murine melanoma, read-out: In vitro cytotoxicity IC50, B-16-F10
# Protocol: (§1) The in vitro cytotoxicity assay involved growing various mammalian tumor cells, including human tumor cells, on microtitre plates employing established tissue culture methods. The concentration of each compound required to inhibit cell growth by 50% (IC50) was then determined by a four-fold serial dilution technique. The validity of the method has been supported by a report published in the "Proceedings of the American Association for Cancer Research", 1984, 25:1891 (Abst. No. 328). Tumor cells of the following types were employed for each compound tested: B16-F10 murine melanoma; Moser human colon; SW900 human lung and three human colon tumor cell lines namely HCT-116, HCT-VM, and HCT-VP, the latter two being resistant to teniposide (VM) and etoposide (VP), respectively. IC50 values less than 500 μg/ml are a positive indicator of antitumor activity. Table II presents IC50 values of various compounds of the present invention against the aforementioned cell lines.
# [3] = test system: Moser human colon; assay: In vitro cytotoxicity assay, Moser human colon; assay type: cell-based; details: two values per compound, four-fold serial dilution; for IC50: Homo sapiens
# Protocol: as §1
# [4] = test system: HCT/VP35; assay: In vitro cytotoxicity assay, HCT/VP35 etoposide-resistant human colon tumor; assay type: cell-based; details: two values per compound, four-fold serial dilution; for In vitro cytotoxicity IC50, HCT/VP35: HCT/VP35, resistant to etoposide; for IC50: Homo sapiens, HCT/VP35, HCT/VP35, resistant to etoposide
# Protocol: as §1
# [5] = test system: HCT/VM34; assay: In vitro cytotoxicity assay, HCT/VM34 teniposide-resistant human colon tumor; assay type: cell-based; details: HCT/VM34, resistant to teniposide, two values per compound, four-fold serial dilution; for IC50: Homo sapiens
# Protocol: as §1
# [6] = test system: HCT-116; assay: In vitro cytotoxicity assay, HCT-116 human colon tumor; assay type: cell-based; details: two values per compound, four-fold serial dilution; for In vitro cytotoxicity IC50, HCT-116: HCT-116 human colon; for IC50: Homo sapiens, HCT-116, HCT-116 human colon
# Protocol: as §1
# [7] = test system: SW900 human lung; assay: In vitro cytotoxicity assay, SW900 human lung; assay type: cell-based; details: two values per compound, four-fold serial dilution; for IC50: Homo sapiens, SW900, SW900 human lung
# Protocol: as §1
SMILES,Max % T/C (ratio of median survival time of drug-treated group to saline-treated control group) [1],"In vitro cytotoxicity IC50, B-16-F10 [2]",IC50 [2],IC50 [3],"In vitro cytotoxicity IC50, MOSER [3]","In vitro cytotoxicity IC50, HCT/VP35 [4]",IC50 [4],"In vitro cytotoxicity IC50, HCT/VM34 [5]",IC50 [5],"In vitro cytotoxicity IC50, HCT-116 [6]",IC50 [6],IC50 [7],"In vitro cytotoxicity IC50, SW900 ([7]; SW900 human lung)"
"COc1cc([C@@H]2c3cc4c(cc3[C@@H](O[C@@H]3O[C@@H]5CO[C@@H](C)O[C@H]5[C@H](O)[C@H]3O)[C@H]3COC(=O)[C@H]23)OCO4)cc2ncoc12 [Example 27, Etoposide benzoxazole derivative]",165%,4.3 µg/mL,5.3 µg/mL,25 µg/mL,27 µg/mL,15.6 µg/mL,26 µg/mL,10.6 µg/mL,14 µg/mL,–,–,–,–
"COc1cc([C@@H]2c3cc4c(cc3[C@@H](O[C@@H]3O[C@@H]5CO[C@@H](C)O[C@H]5[C@H](O)[C@H]3O)[C@H]3COC(=O)[C@H]23)OCO4)cc(NC(=O)NCCCl)c1O [Example 10, 3'-[(2-Chloroethylamino)carbonyl]amino-3'-desmethoxy etoposide]",110%,87 µg/mL,57 µg/mL,–,–,106 µg/mL,92 µg/mL,100 µg/mL,81 µg/mL,78 µg/mL,71 µg/mL,–,–
"COc1cc([C@@H]2c3cc4c(cc3[C@@H](O[C@@H]3O[C@@H]5CO[C@@H](C)O[C@H]5[C@H](O)[C@H]3O)[C@H]3COC(=O)[C@H]23)OCO4)cc(N=Cc2ccncc2)c1O [Example 19, 3'-Desmethoxy-3'-[(4-pyridyl)methylene]amino etoposide]",230%,16.4 µg/mL,16.9 µg/mL,38 µg/mL,32 µg/mL,–,–,19.3 µg/mL,21 µg/mL,12.7 µg/mL,13.9 µg/mL,42 µg/mL,28 µg/mL
"CC(=O)NC1=CC([C@@H]2c3cc4c(cc3[C@@H](O[C@@H]3O[C@@H]5CO[C@@H](C)O[C@H]5[C@H](O)[C@H]3O)[C@H]3COC(=O)[C@@H]32)OCO4)=CC(=O)C1=O [Example 28, 5'-Desmethoxy-5'-acetylamino etoposide 3',4'-orthoquinone]",125%,81 µg/mL,72 µg/mL,87 µg/mL,71 µg/mL,70 µg/mL,84 µg/mL,64 µg/mL,58 µg/mL,68 µg/mL,66 µg/mL,–,–
"COc1cc([C@@H]2c3cc4c(cc3[C@@H](O[C@@H]3O[C@@H]5CO[C@@H](C)O[C@H]5[C@H](O)[C@H]3O)[C@H]3COC(=O)[C@H]23)OCO4)cc(NS(C)(=O)=O)c1O [Example 12, 3'-Desmethoxy-3'-methanesulfonamido etoposide]",150%,54 µg/mL,61 µg/mL,–,–,132 µg/mL,88 µg/mL,–,–,62 µg/mL,54 µg/mL,> 188 µg/mL,–
"COc1cc([C@@H]2c3cc4c(cc3[C@@H](O[C@@H]3O[C@@H]5CO[C@@H](C)O[C@H]5[C@H](O)[C@H]3O)[C@H]3COC(=O)[C@H]23)OCO4)cc([N+]#N)c1[O-] [Example 25, 3'-Desmethoxy-3'-diazonium etoposide hydroxide inner salt]",240%,25 µg/mL,29 µg/mL,–,–,102 µg/mL,78 µg/mL,43 µg/mL,38 µg/mL,38 µg/mL,24 µg/mL,–,–
"COc1cc([C@@H]2c3cc4c(cc3[C@@H](O[C@@H]3O[C@@H]5CO[C@@H](C)O[C@H]5[C@H](O)[C@H]3O)[C@H]3COC(=O)[C@H]23)OCO4)cc(N)c1O [Example 3, 3'-Amino-3'-desmethoxy etoposide]",228%,–,–,–,–,–,–,–,–,–,–,–,–
